Experimental data published in patent US6824998B2, “Compounds and methods for detecting tripeptidyl protease I” (University of Iowa Research Foundation, priority 2003, dated 2004).

Target: T1, TPP-1 (Mus musculus, UniProt O89023)
T1 construct: from tissue; host or cells: frozen 10 µm sections of paraformaldehyde-fixed tissues (e.g. kidney) from C57BL/6J mice (Jackson Laboratory)
T1 sequence (O89023 195-562): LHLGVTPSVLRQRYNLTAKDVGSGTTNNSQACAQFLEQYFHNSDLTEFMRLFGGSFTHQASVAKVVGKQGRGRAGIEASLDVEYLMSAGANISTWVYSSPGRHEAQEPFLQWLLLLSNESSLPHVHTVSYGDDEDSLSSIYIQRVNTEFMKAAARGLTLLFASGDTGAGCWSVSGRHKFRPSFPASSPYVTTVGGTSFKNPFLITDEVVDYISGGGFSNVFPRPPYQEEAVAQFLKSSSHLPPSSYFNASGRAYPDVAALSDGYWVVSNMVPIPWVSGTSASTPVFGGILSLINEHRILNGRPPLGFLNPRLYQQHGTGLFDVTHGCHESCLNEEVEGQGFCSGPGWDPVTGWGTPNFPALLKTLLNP
Assay: TPP-1 histochemical staining of frozen sections of murine tissues
Format: biochemical
Conditions: for Effectiveness of p-NBA and p-AA versus benzaldehyde with regard to precipitate density and color: aldehyde comparison; for Hydrolysis by endogenous TPP-1 in murine tissues / Specificity of TPP-1 detection / background activity: frozen sections of murine tissues
Method: C57BL/6J mice (6 to 8 weeks old) were purchased from the Jackson Laboratory (Bar Harbor, Me.). The mice were sacrificed with an overdose of anesthetic and then transcardially perfused with 0.9% (w/v) saline solution, followed by 2% paraformaldehyde in 0.2 M phosphate buffer. The tissues were removed and post-fixed for 2 hours. After fixation, the tissues were cryoprotected by immersion in 25% sucrose and frozen in OCT compound (Sakura Finetek U.S.A., Inc, Torrance, Calif.). Sections (10 μm) were cut with a cryostat and mounted onto gelatin-coated slides.
Sections were embedded in 0.5% celloidin, followed by incubation in substrate solutions. The sections were incubated in substrate solutions containing 1 mM of the compound, 1 mg/mL of benzaldehyde (BA) or p-anisaldehyde (p-AA) or p-nitrobenzaldehyde (p-NBA) in 0.1 M acetate buffer (pH 4.5) at 37° C. for 4 hours. Slides were rinsed and cover-slipped before viewing on a Leica DM RBE microscope equipped with a Spot-RT Digital Camera and associated software. For all experiments, tissue staining was repeated on a minimum of 5 sections/animal per compound. A minimum of three individual animals was tested to confirm consistency of the results.
Five different compounds, compounds 10, 16, 20, 27, and 31, were tested histochemically on frozen sections of murine tissues. The substrates were systematically compared for sensitivity to TPP-1 activity using conditions to control the rate of crystalline formation and diffusion of product.

| Compound | Color of the final reaction product of TPP-1 histochemical staining (Benzaldehyde) | Effectiveness of p-NBA and p-AA versus benzaldehyde with regard to precipitate density and color | Hydrolysis by endogenous TPP-1 in murine tissues | Specificity of TPP-1 detection / background activity | Color of the final reaction product of TPP-1 histochemical staining (p-Anisaldehyde) | Color of the final reaction product of TPP-1 histochemical staining (p-Nitrobenzaldehyde) | Sensitivity for detecting TPP-1 activity (combination with p-AA, purple precipitates in areas of high endogenous enzyme activity (e.g., kidney)) | Effectiveness as histochemical reagent for detecting TPP-1 (particularly when combined with p-anisaldehyde) | Autofluorescence of the final reaction product of TPP-1 histochemical staining (Benzaldehyde) | Autofluorescence of the final reaction product of TPP-1 histochemical staining (p-Anisaldehyde) | Autofluorescence of the final reaction product of TPP-1 histochemical staining (p-Nitrobenzaldehyde) |
| --- | --- | --- | --- | --- | --- | --- | --- | --- | --- | --- | --- |
| C[C@H](N)C(=O)N[C@@H](C)C(=O)N[C@@H](Cc1ccccc1)C(=O)NNc1cccc2c1C(=O)c1ccccc1C2=O [Compound 27, L-Ala-L-Ala-L-Phe-1-anthraquinonylhydrazide] | Yellow-green | more effective than benzaldehyde itself | readily hydrolyzed | low to no background activity | Yellow-green | Yellow-green |  |  |  |  |  |
| C[C@H](N)C(=O)N[C@@H](C)C(=O)N[C@H](Cc1ccccc1)C(=O)NNc1cccc2c1C(=O)c1ccccc1C2=O [Compound 31, L-Ala-L-Ala-D-Phe-1-anthraquinonylhydrazide] |  |  | no evidence of hydrolysis |  |  |  |  |  |  |  |  |
| NCC(=O)N1CCC[C@H]1C(=O)N[C@@H](CO)C(=O)NNc1cccc2c1C(=O)c1ccccc1C2=O [Compound 20, Gly-L-Pro-L-Ser-1-anthraquinonylhydrazide] | Brown | more effective than benzaldehyde itself | readily hydrolyzed | low to no background activity | Dark Purple | Brown | most sensitive | most effective histochemical reagent |  |  |  |
| C[C@H](NC(=O)[C@@H]1CCCN1C(=O)CN)C(=O)NNc1cccc2c1C(=O)c1ccccc1C2=O [Compound 16, Gly-L-Pro-L-Ala-1-anthraquinonylhydrazide] |  |  | no evidence of hydrolysis |  |  |  |  |  |  |  |  |
| C[C@H](NC(=O)[C@@H]1CCCN1C(=O)CN)C(=O)n1nc2c3c(c(Cl)ccc31)C(=O)c1ccccc1-2 [Compound 10, Gly-L-Pro-L-Ala-5-chloro-1-anthra[1,9-cd]pyrozol-6(2H)-one] | Yellow-green | more effective than benzaldehyde itself | readily hydrolyzed | low to no background activity | Yellow-green | Yellow-green |  |  | Autofluorescent | Autofluorescent | Autofluorescent |
